Measurements from patent publication US9505798B2, “Steroid compounds as RORyt modulators and uses thereof” (New York University, priority 2010, dated 2016).

Legend:
[1] = tested on: aryl hydrocarbon receptor (AHR); experiment: AHR ligand FICZ effect on RORα-dependent IL-17a expression; format: cell-based, mouse; conditions: FICZ added
[2] = molecular target: T1, VP16 (Human herpesvirus 1, UniProt P06492); experiment: S2 cell VP16 luciferase reporter; format: cell-based, herpes simplex virus; conditions: 10 μM, FIG. 1c
T1 construct: herpes simplex virus VP16 (amino acids 413 to end); expressed in transfected cells
T1 sequence (P06492 413-490): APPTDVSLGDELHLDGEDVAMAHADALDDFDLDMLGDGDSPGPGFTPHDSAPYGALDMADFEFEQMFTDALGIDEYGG
Text: The Drosophila S2 cell line was originally purchased from Invitrogen and was maintained in Schneider's medium supplemented with 10% heat-inactivated bovine fetal calf serum and antibiotics (Invitrogen). Gal4 DNA binding domain (G4 DBD) corresponding to amino acids 1 through 147 of Gal4 protein was PCR amplified to make a fusion construct with mouse RORγt (amino acids 79 to the carboxyl terminal end) lacking its DNA binding domain. The resulting chimeric gene was subcloned into the copper inducible pMT/V5-His A vector (Invitrogen). In a similar manner, Gal4 fusion constructs were prepared with mouse RORα (amino acids 142 to end) or Drosophila DHR3 (amino acids 120 to end). Coding sequences for firefly luciferase (Promega) were PCR amplified and subcloned into pUAST vector containing Gal4 binding enhancer sequences. Renilla luciferase construct under the polIII promoter was obtained from Dr. Dasgupta's laboratory (NYU medical center). In order to generate stable cell lines, cells were co-transfected with pMT-G4 DBD-RORγt, pMT-G4 DBD-RORα, pMT-G4 DBD-DHR3, or pMT-G4 DBDVP16 and pHygro plasmids (Invitrogen) and screened for resistant colonies in the presence of hygromycin (0.3 mg/mL). […]

[3] = tested on: mouse Th17 cell differentiation; experiment: In vitro mouse naive CD4+ T cell polarization; format: cell-based
Method: Naive CD25^− CD62L^+CD44^low/int cells were sorted from RORγt^fl/fl mice and transduced with control-IRES-GFP (WT) or CRE-IRES-GFP (KO) retrovirus. […] FACS-sorted naive T cells were transduced with retroviral vectors encoding murine RORα-IRES-GFP or RORγt-IRES-GFP on Day 1 (16 h after TCR stimulation) and GFP expressing cells were gated for analysis on Day 5. […] Lymphocytes were isolated on day 21 after disease induction. The cells were stimulated for 4 h with PMA/Ionomycin and stained for surface markers and intracellular cytokines.
T cells were purified from lymph nodes and spleens of six to eight weeks old B6 mice (Taconic), by magnetically depleting B220^+ cells (autoMACS, Miltenyi), and then sorting CD8^−DAPI^−CD19^−CD4^+CD25^−CD62L^+CD44^low/Int naive T cells on a FACSAria (BD). […] For T cell polarization, 200 μl cells were seeded at 0.4×10^5 cells per mL in 96-well plates pre-coated with anti-CD3ε (5 μg/mL) and anti-CD28 (10 μg/mL). Cells were cultured for 4-5 days in Th17 (TGF-β (0.3 ng/mL), IL-6 (20 ng/mL), and anti-IFN-γ and anti-IL-4 (2 ng/mL)), Th1 (IL-12 (10 ng/mL), IL-2 (10 U/mL) and anti-IL-4 (2 ng/mL)), or Th2 (IL-4 (10 ng/mL), and anti-P35 and anti-IFN-γ 2 ng/mL)) conditions. For ectopic expression ROR proteins, native CD4^+ T cells were infected with retroviral MIGr-control, MIGr-RORα or MIGr-RORγ 24 hrs after activation, and cultured without exogenous cytokines or only with IL-6. At day 1, compounds dissolved in DMSO were added. For cytokine analysis, cells were incubated for 5 hours with phorbol 12-myristate 13-acetate (50 ng/mL; Sigma), ionomycin (500 ng/mL; Sigma) and GolgiStop (BD). Intracellular cytokine staining was performed according to the manufacturer's protocol (Cytofix/Cytoperm buffer set from BD) with alexa647-conjugated anti-IL-17a (eBioscience), and PE-conjugated anti-IFN-γ or anti-IL-4 (eBioscience). An LSR II (BD Biosciences) and FlowJo software (Tree Star) were used for flow cytometry and analysis. Dead cells were excluded using the Live/Dead fixable aqua dead cell stain kit (Invitrogen).
Complementary DNAs (cDNAs) were synthesized from TRIzol (Invitrogen) isolated RNA, using M-MLV Reverse Transcriptase (Promega). Real-time RT-PCR was performed with SYBRgreen master mix (Roche) and the Roche real-time PCR system (Roche480). Gene specific values were normalized to Actb for each sample.

C[C@H]1O[C@@H](O[C@H]2[C@@H](O)C[C@H](O[C@H]3[C@@H](O)C[C@H](O[C@H]4CC[C@@]5(C)[C@H](CC[C@@H]6[C@@H]5C[C@@H](O)[C@]5(C)[C@@H](C7=CC(=O)OC7)CC[C@]65O)C4)O[C@@H]3C)O[C@@H]2C)C[C@H](O)[C@@H]1O [Digoxin]
AHR activity [1]: unaffected | effect on transcriptional activity of VP16 [2]: no effect | differentiation of naive CD4+ T cells into Th1, Th2 and regulatory T cells [3]: no effect | induction of RORγt mRNA and protein expression ([3]; Th17 conditions): not affected | transcriptional up-regulation of IL-23 receptor (IL-23R) gene ([3]; Th17 polarizing conditions): strongly inhibited | expression of IL-17a mRNA and protein ([3]; Th17 polarizing conditions, 10 μM): markedly reduced
